The results in this text go back to ChEMBL document CHEMBL1201862, “PubChem BioAssay data set” (2004).

Some test systems named below: SK-MEL-28; SK-OV-3; MDA-N; UACC-257; CAKI-1; M14; SF-268; A549; T47D; K562; SNB-19; BT-549; 786-0; OVCAR-5; OVCAR-8; RXF 393; U-251; HL-60; NCI-H226.
What all share (assay): inhibition of tumour cell growth, NCI panel, 48 h

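96-well plates; 48 h exposure; 5 concentrations. Endpoints by linear interpolation between flanking doses. Not reached: highest tested concentration assigned. Abbreviation: GI50, concentration required for 50% inhibition of growth.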 Calls of active or inactive are those of the source. No stated cut-off is given here; in the data, active = GI50 up to about 1.1 µM and inactive = higher.

As to `CN(C)CCCNC(=O)c1cc2/c(=C\c3ccc(N(C)C)cc3)c3ccccc3n2[n+]1C`, the GI50 in the assay on SK-MEL-28 is 30.8 µM (inactive); in the assay on SK-OV-3 it was > 100 µM (inactive); with MDA-N, 24.4 µM (inactive); in the assay on UACC-257 it was 21.4 µM (inactive); in the assay on CAKI-1, > 100 µM (inactive); with M14, 21.4 µM (inactive). In addition, the GI50 in the assay on SF-268 was 32.6 µM (inactive); in the assay on A549 it was > 100 µM (inactive); in the assay with T47D it was 1.45 µM (inactive); with K562, 8.83 µM (inactive); in the assay on SNB-19 it was 24.8 µM (inactive); in the assay on BT-549, 63.7 µM (inactive). In addition, the GI50 was 52.8 µM (inactive) with 786-0; 56.6 µM (inactive) in the assay with OVCAR-5; 40.8 µM (inactive) in the assay on OVCAR-8; > 100 µM (inactive) with RXF 393; 22.4 µM (inactive) with U-251; 11.9 µM (inactive) in the assay on HL-60.

As to `C=C1[C@H](OC(=O)C(C)C)[C@@H](OC(C)=O)[C@@H](OC(C)=O)C(C)(C)[C@@H]2O[C@H]2[C@@H](C)C(=O)[C@@]2(OC(C)=O)C[C@@](C)(OC(C)=O)[C@H](OC(C)=O)[C@@H]2[C@H]1OC(C)=O`, the GI50 in the assay on SK-OV-3, in the assay on NCI-H226, in the assay with MDA-N, in the assay on UACC-257, with CAKI-1 and in the assay with M14 was > 100 µM (inactive) in each case. Also, the GI50 in the assay with SF-268, in the assay with A549, in the assay with T47D, with K562, in the assay with SNB-19 and in the assay with BT-549 was > 100 µM (inactive) in each case. The GI50 in the assay with 786-0, in the assay with OVCAR-5, in the assay on OVCAR-8, with U-251 and in the assay on HL-60 was > 100 µM (inactive) in each case.

Turning to `COc1cc2c3c(n(C)c(=O)c2cc1OC)-c1cc2c(cc1/C3=C\CCCCl)OCO2`, the GI50 is 89.7 µM (inactive) with SK-MEL-28; 23 µM (inactive) in the assay with SK-OV-3; > 100 µM (inactive) in the assay on MDA-N; 36.9 µM (inactive) in the assay on UACC-257; 25.9 µM (inactive) in the assay with CAKI-1; 36.9 µM (inactive) in the assay on M14. The GI50 with SF-268 was 43.6 µM (inactive); in the assay with A549, > 100 µM (inactive); with T47D, 30.3 µM (inactive); in the assay with K562, 23.2 µM (inactive); in the assay with SNB-19, 44.9 µM (inactive); with BT-549, 20.5 µM (inactive). Further, the GI50 in the assay with 786-0 is 16.7 µM (inactive); in the assay with OVCAR-5, > 100 µM (inactive); in the assay on OVCAR-8 it was 49.4 µM (inactive); in the assay on RXF 393, 12.9 µM (inactive); in the assay on U-251, 25.2 µM (inactive); with HL-60, 55.1 µM (inactive).

In the case of `O=c1[nH]c(=O)n([C@H]2C[C@H](O)[C@@H](CO)O2)cc1Br` [BROXURIDINE], the GI50 with SK-MEL-28 is > 86.5 µM (inactive); in the assay with SK-OV-3, > 100 µM (inactive); in the assay with NCI-H226, > 100 µM (inactive); with MDA-N it was > 100 µM (inactive); in the assay on UACC-257, > 100 µM (inactive); in the assay on CAKI-1, > 100 µM (inactive). The GI50 with M14 was > 86.7 µM (inactive); in the assay on SF-268, > 100 µM (inactive); in the assay on A549 it was > 100 µM (inactive); with T47D, > 100 µM (inactive); with K562 it was > 72.4 µM (inactive); with SNB-19, > 100 µM (inactive). Besides, the GI50 in the assay with BT-549, in the assay on 786-0, in the assay on OVCAR-5, with OVCAR-8, in the assay with RXF 393 and in the assay with U-251 was > 100 µM (inactive) each time.

`CCN1CCC(O)(c2ccc(Oc3ccccc3)cc2)C(C(=O)c2ccc(Oc3ccccc3)cc2)C1` (stereo not given): the GI50 was 13.6 µM (inactive) in the assay with SK-MEL-28; 13.8 µM (inactive) in the assay on MDA-N; 12.7 µM (inactive) in the assay with UACC-257; 16.4 µM (inactive) in the assay on CAKI-1; 11.6 µM (inactive) with M14; 16.3 µM (inactive) in the assay on SF-268. The GI50 with A549 is 13.5 µM (inactive); with T47D, 11.6 µM (inactive); with K562, 13.7 µM (inactive); with SNB-19, 14.6 µM (inactive); in the assay with BT-549, 10.5 µM (inactive); with 786-0, 5.5 µM (inactive). The GI50 with OVCAR-5 is 15.4 µM (inactive); with OVCAR-8 it was 17.1 µM (inactive); with RXF 393, 22.2 µM (inactive); with U-251 it was 11.6 µM (inactive); in the assay with HL-60, 3.75 µM (inactive).

In the case of `Cc1ccc(S(=O)(=O)NN=C2C(C)CC(C(C)(C)C)CC2C)cc1` (stereo not given), the GI50 with SK-MEL-28 was 20 µM (inactive); in the assay on SK-OV-3, 24.4 µM (inactive); in the assay with NCI-H226, 19 µM (inactive); with MDA-N it was 19.3 µM (inactive); in the assay with UACC-257, 19.1 µM (inactive); in the assay on CAKI-1 it was 16.9 µM (inactive). Besides, the GI50 with M14 is 13.5 µM (inactive); in the assay with A549, 17.9 µM (inactive); in the assay with T47D it was 21.7 µM (inactive); in the assay with K562 it was 21 µM (inactive); in the assay with SNB-19, 26.3 µM (inactive); in the assay on BT-549, 17.9 µM (inactive). The GI50 in the assay with 786-0 was 17.4 µM (inactive); in the assay with OVCAR-5 it was 17.5 µM (inactive); with OVCAR-8, 24.1 µM (inactive); in the assay with U-251 it was 17.7 µM (inactive); with HL-60 it was 25.9 µM (inactive).

Take `Cc1ccc2c(c1)-c1c(C#N)c(N)nc(-c3ccc(Cl)cc3)c1CCS2(=O)=O`: the GI50 in the assay on SK-MEL-28 was 20.6 µM (inactive); in the assay with SK-OV-3, 8.38 µM (inactive); in the assay with NCI-H226, 28.6 µM (inactive); with MDA-N, 1.65 µM (inactive); with UACC-257, 5.24 µM (inactive); in the assay on CAKI-1, 5.97 µM (inactive). Besides, the GI50 was 5.21 µM (inactive) with M14; 20.1 µM (inactive) in the assay on SF-268; 5.31 µM (inactive) with A549; 17.3 µM (inactive) in the assay on T47D; 2.8 µM (inactive) in the assay on K562; 13.2 µM (inactive) in the assay on SNB-19. Also, the GI50 with BT-549 is 13.6 µM (inactive); in the assay on 786-0, 6.19 µM (inactive); in the assay with OVCAR-5 it was 49.9 µM (inactive); with OVCAR-8, 14.8 µM (inactive); in the assay on U-251 it was 7.14 µM (inactive); with HL-60, 0.207 µM (active).

Take `COc1cccc(CCCNC(=O)Cc2ccccc2CO)c1`: the GI50 with SK-MEL-28, in the assay with SK-OV-3, in the assay with NCI-H226, with MDA-N, in the assay with UACC-257 and in the assay with CAKI-1 was > 100 µM (inactive) in each case. The GI50 with M14 is > 100 µM (inactive); in the assay with A549, > 100 µM (inactive); in the assay on T47D, 38.1 µM (inactive); with K562, > 100 µM (inactive); in the assay on SNB-19, > 100 µM (inactive); with BT-549, > 100 µM (inactive). Moreover, the GI50 in the assay on 786-0, in the assay with OVCAR-5, with OVCAR-8, in the assay with U-251 and in the assay with HL-60 was > 100 µM (inactive) in each case.
